One series deals with endogenous human Cav1.3 (Homo sapiens, UniProt Q01668).
For another series, the target named is endogenous human Cav3.1 (Homo sapiens, UniProt O43497).
Series [1] has as its target N-type calcium channel currents (Cav2.2) in rDRG neurons (Rattus norvegicus, UniProt Q02294). Put plainly: cell-based. The conditions noted are these: SEM.
Another series deals with side effects in rats. The conditions noted are these: rat, in vivo.

Positions of bridges follow the written chain, without caps; N, C: chain ends. Non-standard residues stand in square brackets, D forms with d. Residues, ends and D or L forms follow the SMILES beside them. Hyp = O=C(O)[C@@H]1C[C@@H](O)CN1

The term IC50 denotes the concentration needed to halve the response being measured.

endogenous human Cav1.3, sequence (Q01668 whole entry): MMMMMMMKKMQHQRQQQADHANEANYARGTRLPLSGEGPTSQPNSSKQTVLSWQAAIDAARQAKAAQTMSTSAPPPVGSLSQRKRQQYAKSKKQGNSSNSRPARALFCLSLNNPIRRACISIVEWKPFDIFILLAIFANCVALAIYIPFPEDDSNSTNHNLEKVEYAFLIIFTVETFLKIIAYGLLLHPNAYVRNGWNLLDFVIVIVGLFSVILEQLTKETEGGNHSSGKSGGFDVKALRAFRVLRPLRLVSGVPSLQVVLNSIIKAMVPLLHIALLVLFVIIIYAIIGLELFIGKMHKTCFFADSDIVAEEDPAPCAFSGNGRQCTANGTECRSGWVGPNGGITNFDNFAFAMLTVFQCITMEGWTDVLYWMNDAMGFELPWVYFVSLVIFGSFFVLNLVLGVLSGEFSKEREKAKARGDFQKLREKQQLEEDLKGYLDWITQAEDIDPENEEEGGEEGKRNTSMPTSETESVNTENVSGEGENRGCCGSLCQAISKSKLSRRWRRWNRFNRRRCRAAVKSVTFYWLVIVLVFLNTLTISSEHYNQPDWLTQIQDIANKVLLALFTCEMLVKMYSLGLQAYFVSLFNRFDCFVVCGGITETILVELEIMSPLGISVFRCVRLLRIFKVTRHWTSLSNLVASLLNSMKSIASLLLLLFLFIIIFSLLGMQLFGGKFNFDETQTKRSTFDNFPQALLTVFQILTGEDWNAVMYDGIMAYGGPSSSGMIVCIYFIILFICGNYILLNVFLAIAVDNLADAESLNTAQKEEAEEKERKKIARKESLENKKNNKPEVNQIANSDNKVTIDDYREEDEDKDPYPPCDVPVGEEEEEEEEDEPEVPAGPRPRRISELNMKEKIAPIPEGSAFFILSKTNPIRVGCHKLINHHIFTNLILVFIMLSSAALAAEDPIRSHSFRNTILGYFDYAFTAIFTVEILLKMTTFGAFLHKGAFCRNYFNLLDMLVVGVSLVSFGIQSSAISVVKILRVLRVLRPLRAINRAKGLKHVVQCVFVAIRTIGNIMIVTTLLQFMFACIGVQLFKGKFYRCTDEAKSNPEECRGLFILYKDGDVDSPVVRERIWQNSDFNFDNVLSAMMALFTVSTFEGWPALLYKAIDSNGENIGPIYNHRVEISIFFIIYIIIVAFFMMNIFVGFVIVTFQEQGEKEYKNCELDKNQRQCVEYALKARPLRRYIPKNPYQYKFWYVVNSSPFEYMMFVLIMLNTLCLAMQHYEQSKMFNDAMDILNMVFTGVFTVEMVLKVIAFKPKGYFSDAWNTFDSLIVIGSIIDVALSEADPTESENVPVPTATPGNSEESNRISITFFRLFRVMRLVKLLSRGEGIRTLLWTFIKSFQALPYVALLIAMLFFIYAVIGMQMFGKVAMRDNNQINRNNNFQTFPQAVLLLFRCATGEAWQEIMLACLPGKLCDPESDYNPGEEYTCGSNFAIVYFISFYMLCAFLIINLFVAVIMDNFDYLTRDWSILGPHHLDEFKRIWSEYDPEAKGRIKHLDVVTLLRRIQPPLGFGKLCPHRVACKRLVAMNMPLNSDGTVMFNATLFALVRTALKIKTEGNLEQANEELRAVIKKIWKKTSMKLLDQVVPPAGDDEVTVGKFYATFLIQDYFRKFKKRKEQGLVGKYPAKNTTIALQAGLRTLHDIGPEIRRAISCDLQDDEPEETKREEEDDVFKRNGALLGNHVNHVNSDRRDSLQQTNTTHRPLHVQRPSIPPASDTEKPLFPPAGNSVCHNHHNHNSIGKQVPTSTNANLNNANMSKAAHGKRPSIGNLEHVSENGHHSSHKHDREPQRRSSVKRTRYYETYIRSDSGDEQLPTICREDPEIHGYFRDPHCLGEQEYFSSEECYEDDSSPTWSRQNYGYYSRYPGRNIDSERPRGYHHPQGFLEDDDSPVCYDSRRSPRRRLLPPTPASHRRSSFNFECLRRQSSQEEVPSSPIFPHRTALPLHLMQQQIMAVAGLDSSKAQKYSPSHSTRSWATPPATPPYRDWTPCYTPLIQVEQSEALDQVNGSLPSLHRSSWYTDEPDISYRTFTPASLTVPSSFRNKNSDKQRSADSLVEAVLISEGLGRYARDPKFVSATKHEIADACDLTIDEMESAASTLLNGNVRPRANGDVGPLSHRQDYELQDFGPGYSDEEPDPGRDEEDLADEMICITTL
endogenous human Cav1.3, sequence (P54289 25-956 partner limits assumed): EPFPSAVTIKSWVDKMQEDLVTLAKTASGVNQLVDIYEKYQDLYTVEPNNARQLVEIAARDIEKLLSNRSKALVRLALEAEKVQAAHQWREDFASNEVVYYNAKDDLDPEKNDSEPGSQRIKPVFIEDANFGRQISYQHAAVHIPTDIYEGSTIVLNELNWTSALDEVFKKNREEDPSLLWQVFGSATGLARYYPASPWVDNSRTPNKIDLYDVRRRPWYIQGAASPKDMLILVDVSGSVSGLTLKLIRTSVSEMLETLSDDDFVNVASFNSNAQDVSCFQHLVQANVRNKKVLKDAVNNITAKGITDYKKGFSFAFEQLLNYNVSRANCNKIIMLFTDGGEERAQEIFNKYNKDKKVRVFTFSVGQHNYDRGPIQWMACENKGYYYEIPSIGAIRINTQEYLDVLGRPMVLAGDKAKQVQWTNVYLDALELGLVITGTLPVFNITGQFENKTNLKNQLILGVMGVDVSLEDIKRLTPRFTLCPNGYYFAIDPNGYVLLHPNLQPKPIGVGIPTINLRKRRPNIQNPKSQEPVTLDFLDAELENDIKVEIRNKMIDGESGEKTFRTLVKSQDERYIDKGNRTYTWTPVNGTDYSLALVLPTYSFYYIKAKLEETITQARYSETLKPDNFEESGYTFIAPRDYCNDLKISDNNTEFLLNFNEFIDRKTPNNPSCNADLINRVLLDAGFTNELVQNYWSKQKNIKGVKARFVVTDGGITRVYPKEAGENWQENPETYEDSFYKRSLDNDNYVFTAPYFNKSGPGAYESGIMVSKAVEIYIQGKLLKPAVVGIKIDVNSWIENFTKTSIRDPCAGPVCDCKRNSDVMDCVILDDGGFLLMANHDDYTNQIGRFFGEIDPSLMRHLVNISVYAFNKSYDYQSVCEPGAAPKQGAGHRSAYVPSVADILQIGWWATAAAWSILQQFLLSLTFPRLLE
endogenous human Cav1.3, sequence (P54289 957-1103 partner limits assumed): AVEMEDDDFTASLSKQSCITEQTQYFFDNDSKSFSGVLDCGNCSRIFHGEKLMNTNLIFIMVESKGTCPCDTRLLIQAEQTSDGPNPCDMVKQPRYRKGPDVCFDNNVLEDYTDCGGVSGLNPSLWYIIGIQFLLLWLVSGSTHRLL
endogenous human Cav1.3, sequence (P54284 whole entry partner): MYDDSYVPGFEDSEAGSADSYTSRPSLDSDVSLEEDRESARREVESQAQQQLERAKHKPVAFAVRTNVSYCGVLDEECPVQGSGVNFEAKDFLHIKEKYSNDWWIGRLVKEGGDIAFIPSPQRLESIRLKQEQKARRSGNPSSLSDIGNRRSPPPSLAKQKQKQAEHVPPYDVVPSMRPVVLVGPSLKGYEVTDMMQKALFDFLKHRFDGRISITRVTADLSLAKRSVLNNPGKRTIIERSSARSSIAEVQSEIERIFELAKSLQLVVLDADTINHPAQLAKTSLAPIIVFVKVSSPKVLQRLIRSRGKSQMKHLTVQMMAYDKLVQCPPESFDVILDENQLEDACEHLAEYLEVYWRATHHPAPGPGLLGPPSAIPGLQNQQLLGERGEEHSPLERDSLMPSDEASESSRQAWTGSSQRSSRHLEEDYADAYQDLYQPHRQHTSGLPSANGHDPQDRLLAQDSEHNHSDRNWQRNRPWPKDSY

Take `CC[C@H](C)[C@@H]1NC(=O)[C@@H]2CSSC[C@@H]3NC(=O)[C@H](CCCCN)NC(=O)[C@H](CO)NC(=O)CNC(=O)[C@@H]4C[C@@H](O)CN4C(=O)[C@@H]4CCCN4C(=O)[C@H](CCCCN)NC(=O)[C@@H](N)CSSC[C@H](NC(=O)[C@H](CSSC[C@@H](C(=O)N[C@@H](CCCNC(=N)N)C(=O)N[C@@H](CCCCN)C(=O)N[C@@H](Cc4ccc(O)cc4)C(=O)N[C@@H](Cc4ccc(O)cc4)C(=O)N[C@@H](CC(N)=O)C(=O)O)NC(=O)[C@H](CCCNC(=N)N)NC(=O)[C@H](CCCCN)NC(=O)[C@H]([C@@H](C)O)NC(=O)[C@H](Cc4ccc(O)cc4)NC(=O)[C@H](CO)NC1=O)NC(=O)[C@H](CC(=O)O)NC(=O)[C@H](CCCNC(=N)N)NC(=O)[C@H](CCSC)NC(=O)[C@H](CO)NC(=O)[C@@H]1C[C@@H](O)CN1C(=O)[C@H](CO)NC3=O)C(=O)N[C@@H]([C@@H](C)O)C(=O)N[C@@H]([C@@H](C)O)C(=O)N2` [MoVIA] (H-CKP[Hyp]GSKCS[Hyp]SMRDCCTTCISYTKRCRKYYN-OH; disulfide 1-16, 8-19, 15-26): the “activity at endogenous human Cav1.3” value on endogenous human Cav1.3 is “inactive”. Moreover, at endogenous human Cav3.1, the “activity at endogenous human Cav3.1” value is “inactive”. In addition, in series [1], the IC50 came to 80 ± 10 nM.
For `CC[C@H](C)[C@@H]1NC(=O)[C@@H]2CSSC[C@@H]3NC(=O)[C@H](CCCCN)NC(=O)[C@H](CO)NC(=O)CNC(=O)[C@@H]4C[C@@H](O)CN4C(=O)[C@@H]4CCCN4C(=O)[C@H](CCCCN)NC(=O)[C@@H](N)CSSC[C@H](NC(=O)[C@H](CSSC[C@@H](C(=O)N[C@@H](CCCNC(=N)N)C(=O)N[C@@H](CCCCN)C(=O)N[C@@H](Cc4ccc(O)cc4)C(=O)N[C@@H](Cc4ccc(O)cc4)C(=O)O)NC(=O)[C@H](CCCNC(=N)N)NC(=O)[C@H](CCCCN)NC(=O)[C@H]([C@@H](C)O)NC(=O)[C@H](Cc4ccc(O)cc4)NC(=O)[C@H](CO)NC1=O)NC(=O)[C@H](CC(=O)O)NC(=O)[C@H](CCCNC(=N)N)NC(=O)[C@H](CCSC)NC(=O)[C@H](CO)NC(=O)[C@@H]1C[C@@H](O)CN1C(=O)[C@H](CO)NC3=O)C(=O)N[C@@H]([C@@H](C)O)C(=O)N[C@@H]([C@@H](C)O)C(=O)N2` [MoVIB] (H-CKP[Hyp]GSKCS[Hyp]SMRDCCTTCISYTKRCRKYY-OH; disulfide 1-16, 8-19, 15-26), the “activity at endogenous human Cav1.3” value on endogenous human Cav1.3 was “inactive”. Further, the “activity at endogenous human Cav3.1” value on endogenous human Cav3.1 was “inactive”. Further, in the series with side effects in rats, the “duration of side effects” value was “up to 4 h” and the “therapeutic index (ratio of ED50 visual side effect score to ED50 mechanical PWT)” value was 2.2. In the series with side effects in rats (SEM), the “ED50 for visual side effect score” value turned out to be 0.09 ± 0.05 nmol. Further, the IC50 in series [1] was determined as 180 ± 30 nM.
